The text below walks through data of ChEMBL document CHEMBL1146635 (Bioorg Med Chem Lett, 2003).

The test system of data set [1] is Human immunodeficiency virus 1. As to the kind of experiment: Viral spread inhibitory concentration against HIV-1 strain NL4-3 in MT-4 human T-lymphoid cells. Type of data set: functional. The following applies: Human immunodeficiency virus 1, T-lymphoid; read-out: CIC95.
The subject of data set [2] is Human immunodeficiency virus 1. Nature of the data set: Viral spread inhibitory concentration against HIV-1 strain K-60C in MT-4 human T-lymphoid cells. Type of data set: functional. The following applies: Human immunodeficiency virus 1, T-lymphoid; read-out: CIC95.
In data set [3] the target is T1, Human immunodeficiency virus type 1 protease (Human immunodeficiency virus 1, UniProt Q72874). Nature of the data set: In vitro inhibition of HIV-1 protease (NL4-3 strain).
Data set [4] deals with Human immunodeficiency virus 1. Nature of the data set: Viral spread inhibitory concentration against HIV-1 strain Q-60C in MT-4 human T-lymphoid cells. Type of data set: functional. The following applies: Human immunodeficiency virus 1, T-lymphoid; read-out: CIC95.
A further data set relates to MT4. As to the kind of experiment: Viral spread inhibitory concentration against HIV-1 strain V-18C in MT-4 human T-lymphoid cells. Type of data set: functional. The following applies: read-out: CIC95.
The target of a further data set is Cytochrome P450 3A4 (Homo sapiens, UniProt P08684). Nature of the data set: In vitro inhibition of Cytochrome P450 3A4. Type of data set: ADME.
Data set [5] in a line: Plasma clearance in human liver microsomes. Type of data set: ADME, Microsome. (In general: Microsomes from liver hold many membrane-bound enzymes, among them those of drug oxidation.)
The nature of data set [6]: Cmax value determined in dog at a dose of 10 mg/kg by oral administration. Type of data set: ADME, organism-based, Canis lupus familiaris. The arrangement: dose 10 mg/kg, route oral. The following applies: in vivo.
The nature of data set [7]: Area under curve determined in dog at a dose of 10 mg/kg by oral administration. Further details: dose 10 mg/kg, route oral. The following applies: in vivo. Type of data set: ADME, organism-based, Canis lupus familiaris.
Data set [8] can be described thus: Area under curve determined in dog at a dose of 10 mg/kg by oral administration along with […] (10 mg/kg). The following applies: in vivo.
A short description of data set [9]: Cmax value determined in dog at a dose of […] by oral administration along with […] (10 mg/kg). Type of data set: ADME, organism-based, Canis lupus familiaris. Further details: route oral. The following applies: in vivo.
In data set [10] the target is T1, Human immunodeficiency virus type 1 protease. As to the kind of experiment: Inhibitory activity against HIV-1 protease (V-18C strain).
Another data set has as its target Cytochrome P450 2D6 (Homo sapiens, UniProt P10635). As to the kind of experiment: In vitro inhibition of Cytochrome P450 2D6. Type of data set: ADME.
The target in data set [11] is T1, Human immunodeficiency virus type 1 protease. Nature of the data set: Inhibitory activity against HIV-1 protease (K-60C strain).
For data set [12] the target is unchanged. As to the kind of experiment: Inhibitory activity against HIV-1 protease (Q-60C strain).
Another data set deals with Canis familiaris. Nature of the data set: Cmax value determined in dog at a dose of 10 mg/kg by oral administration along with indinavir (10 mg/kg). The following applies: in vivo.
Data set [13] can be described thus: Cmax value determined in dog at a dose of 5 mg/kg by oral administration. Type of data set: ADME, organism-based, Canis lupus familiaris. The arrangement: dose 5 mg/kg, route oral. The following applies: in vivo.

Sequence of Cytochrome P450 3A4 (P08684 whole entry): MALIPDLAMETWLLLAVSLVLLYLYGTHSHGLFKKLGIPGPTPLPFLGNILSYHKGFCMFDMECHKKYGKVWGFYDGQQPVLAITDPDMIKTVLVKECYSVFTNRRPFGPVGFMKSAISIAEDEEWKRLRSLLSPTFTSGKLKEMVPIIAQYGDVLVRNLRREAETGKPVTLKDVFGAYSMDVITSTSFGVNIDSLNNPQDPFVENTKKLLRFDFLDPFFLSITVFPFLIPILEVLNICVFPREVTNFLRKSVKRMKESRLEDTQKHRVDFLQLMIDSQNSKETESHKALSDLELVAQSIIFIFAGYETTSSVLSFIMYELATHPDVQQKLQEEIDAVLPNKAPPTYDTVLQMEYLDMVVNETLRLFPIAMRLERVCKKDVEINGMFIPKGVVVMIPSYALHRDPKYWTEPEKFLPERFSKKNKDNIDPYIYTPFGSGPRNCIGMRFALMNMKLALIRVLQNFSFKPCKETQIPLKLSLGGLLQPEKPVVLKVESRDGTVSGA
Sequence of Cytochrome P450 2D6 (P10635 whole entry): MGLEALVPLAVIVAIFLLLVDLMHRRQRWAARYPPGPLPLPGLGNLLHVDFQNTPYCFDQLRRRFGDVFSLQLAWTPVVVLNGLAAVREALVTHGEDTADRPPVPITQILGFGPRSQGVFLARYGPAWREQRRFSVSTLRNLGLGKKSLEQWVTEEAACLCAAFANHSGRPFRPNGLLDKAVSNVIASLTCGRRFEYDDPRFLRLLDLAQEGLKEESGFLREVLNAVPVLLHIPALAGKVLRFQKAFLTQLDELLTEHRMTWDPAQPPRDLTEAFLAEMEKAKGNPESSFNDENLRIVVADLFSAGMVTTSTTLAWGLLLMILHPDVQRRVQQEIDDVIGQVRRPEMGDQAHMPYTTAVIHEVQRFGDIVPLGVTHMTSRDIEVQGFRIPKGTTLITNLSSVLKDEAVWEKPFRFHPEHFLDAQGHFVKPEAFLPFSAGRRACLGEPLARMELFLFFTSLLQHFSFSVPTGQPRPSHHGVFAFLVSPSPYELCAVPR

Consider `N#Cc1ccc(-n2ccc(CN3CCN(C[C@@H](O)C[C@@H](Cc4cccnc4)C(=O)N[C@H]4c5ccccc5OC[C@H]4O)[C@H](C(=O)NCC(F)(F)F)C3)c2)cc1`, for which the values for the IC95 in data set [1], in data set [2] and in [4] were 62 nM, 125 nM and 31 nM, respectively. The IC50 (usually the concentration that gives 50% inhibition) in data set [3] stood at 0.1 nM.
`Cc1cccc(-n2ccc(CN3CCN(C[C@@H](O)C[C@@H](Cc4cccnc4)C(=O)N[C@H]4c5ccccc5OC[C@H]4O)[C@H](C(=O)NCC(F)(F)F)C3)c2)c1`: the IC95 in [1] was at most 8 nM; in data set [2], 62 nM; with MT4 it was at most 8 nM; in data set [4], at most 8 nM. Also, in data set [3], the IC50 was 0.1 nM.
As to `O=C(N[C@H]1c2ccccc2OC[C@H]1O)[C@H](Cc1cccnc1)C[C@H](O)CN1CCN(Cc2ccn(-c3ccc(F)c(F)c3F)c2)C[C@H]1C(=O)NCC(F)(F)F`, the IC95 in [1] is at most 8 nM; in [2], 15 nM; with MT4, at most 8 nM; in data set [4] it was at most 8 nM. Moreover, the IC50 on Cytochrome P450 3A4 amounted to 50 nM; in [3], 0.05 nM. In data set [5], the CLint scaled – broadly, the capacity of the preparation to metabolise the compound, expressed as a volume cleared per time – is 218 mL/min/kg. Further, the highest level in data set [6] (Cmax) was 1.9 µM. Further, the AUC (commonly concentration integrated over time) in [7] was 4.4 µM·h; in data set [8], 26.6 µM·h.
Consider `O=C(N[C@H]1c2ccccc2OC[C@H]1O)[C@H](Cc1cccnc1)C[C@H](O)CN1CCN(Cc2ccn(-c3ccccc3C(F)(F)F)c2)C[C@H]1C(=O)NCC(F)(F)F`, for which the IC95 came to 38 nM in data set [1], 500 nM in [2] and 500 nM in data set [4]. In [3], this compound registered an IC50 of 1.32 nM.
`O=C(N[C@H]1c2ccccc2OC[C@H]1O)[C@H](Cc1cccnc1)C[C@H](O)CN1CCN(Cc2ccn(-c3ccc(Cl)c(Cl)c3)c2)C[C@H]1C(=O)NCC(F)(F)F`: the IC95 was 15 nM in data set [1], 31 nM in [2], 15 nM in the data set with MT4 and at most 8 nM in data set [4]. The same compound showed a half-maximal inhibitory concentration (IC50) in data set [3] of 0.02 nM.
Regarding `CC(C)(C)NC(=O)[C@@H]1CN(Cc2cccnc2)CCN1C[C@@H](O)C[C@@H](Cc1ccccc1)C(=O)N[C@H]1c2ccccc2C[C@H]1O.O`, the IC95 was 50 nM in data set [1], above 1000 nM in data set [2], above 1000 nM with MT4 and above 1000 nM in data set [4]. Besides, the AUC in [8] came to 12.5 µM·h. The peak level in [9] (Cmax) was 11.4 µM.
Turning to `Cc1ccc(-n2ccc(CN3CCN(C[C@@H](O)C[C@@H](Cc4cccnc4)C(=O)N[C@H]4c5ccccc5OC[C@H]4O)[C@H](C(=O)NCC(F)(F)F)C3)c2)cc1`, the IC95 is 15 nM in data set [1], 15 nM in data set [2], 15 nM with MT4 and at most 8 nM in data set [4]. For the same compound, the midpoint of inhibition in [3], the IC50, lay at 0.06 nM.
As to `O=C(N[C@H]1c2ccccc2OC[C@H]1O)[C@H](Cc1cccnc1)C[C@H](O)CN1CCN(Cc2ccn(-c3cccc(Cl)c3)c2)C[C@H]1C(=O)NCC(F)(F)F`, the IC95 (in [1]; in data set [2]; with MT4; in data set [4]) was at most 8 nM each time. Also, the figures for the IC50 (against Cytochrome P450 3A4; in data set [3]) were 80 nM and 0.05 nM, respectively. In addition, in [5], the CLint scaled turned out to be 307 mL/min/kg.
On to `O=C(N[C@H]1c2ccccc2OC[C@H]1O)[C@H](Cc1cccnc1)C[C@H](O)CN1CCN(Cc2ccn(-c3ccc(Cl)cc3)c2)C[C@H]1C(=O)NCC(F)(F)F`, for which the IC95 in [1] is at most 8 nM; in data set [2], 15 nM; with MT4 it was at most 8 nM; in [4] it was at most 8 nM. The IC50 against Cytochrome P450 3A4 came out at 50 nM; in [3], 0.03 nM. This compound returned a CLint scaled in data set [5] of 229 mL/min/kg.
Turning to `O=C(N[C@H]1c2ccccc2OC[C@H]1O)[C@H](Cc1cccnc1)C[C@H](O)CN1CCN(Cc2ccn(-c3cc(Cl)c(Cl)c(Cl)c3)c2)C[C@H]1C(=O)NCC(F)(F)F`, the IC95 was at most 8 nM in [1], 31 nM in data set [2], 15 nM with MT4 and at most 8 nM in data set [4]. This compound also showed an IC50 in data set [3] of 0.02 nM.
Regarding `O=C(N[C@H]1c2ccccc2OC[C@H]1O)[C@H](Cc1cccnc1)C[C@H](O)CN1CCN(Cc2ccn(-c3ccccc3Cl)c2)C[C@H]1C(=O)NCC(F)(F)F`, the IC95 is at most 8 nM in data set [1], 62 nM in [2], 31 nM with MT4 and 31 nM in data set [4]. This compound showed an IC50 in data set [3] of 0.18 nM.
`O=C(N[C@H]1c2ccccc2OC[C@H]1O)[C@H](Cc1cccnc1)C[C@H](O)CN1CCN(Cc2ccn(-c3ccccc3)c2)C[C@H]1C(=O)NCC(F)(F)F`: the IC95 in data set [1] is 15 nM; in [2], 31 nM; with MT4 it was at most 8 nM; in data set [4] it was at most 8 nM. For the same compound, the IC50 on Cytochrome P450 3A4 was determined as 400 nM; in data set [10] it was 2.49 nM; on Cytochrome P450 2D6 it was 12000 nM; in data set [3], 0.11 nM; in data set [11], 2.7 nM. The compound also yielded a CLint scaled in data set [5] of 332 mL/min/kg. In data set [6], the Cmax (commonly the highest concentration seen after dosing) is 5.3 µM. This compound yielded an AUC in data set [7] of 7 µM·h.
Turning to `N#Cc1ccccc1-n1ccc(CN2CCN(C[C@@H](O)C[C@@H](Cc3cccnc3)C(=O)N[C@H]3c4ccccc4OC[C@H]3O)[C@H](C(=O)NCC(F)(F)F)C2)c1`, the IC95 in [1] came out at 46 nM; in data set [2], 250 nM; in [4], 62 nM. Also, the IC50 in data set [3] came out at 0.46 nM.
The matching figures for `O=C(N[C@H]1c2ccccc2OC[C@H]1O)[C@H](Cc1cccnc1)C[C@H](O)CN1CCN(Cc2ccn(-c3ccccc3F)c2)C[C@H]1C(=O)NCC(F)(F)F`: 15 nM, 62 nM, 31 nM and 0.16 nM.
For `O=C(N[C@H]1c2ccccc2OC[C@H]1O)[C@H](Cc1cccnc1)C[C@H](O)CN1CCN(Cc2ccn(-c3ccc(F)cc3)c2)C[C@H]1C(=O)NCC(F)(F)F`, the IC95 in data set [1], in [2] and in [4] was 15 nM in each case. This compound also registered an IC50 in [3] of 0.05 nM.
With `O=C(N[C@H]1c2ccccc2OC[C@H]1O)[C@H](Cc1cccnc1)C[C@H](O)CN1CCN(Cc2ccn(-c3ccc(C(F)(F)F)cc3)c2)C[C@H]1C(=O)NCC(F)(F)F`, the IC95 is 15 nM in data set [1], 15 nM in data set [2] and at most 8 nM in [4]. This compound yielded an IC50 in [3] of 0.04 nM.
Consider `N#Cc1cccc(-n2ccc(CN3CCN(C[C@@H](O)C[C@@H](Cc4cccnc4)C(=O)N[C@H]4c5ccccc5OC[C@H]4O)[C@H](C(=O)NCC(F)(F)F)C3)c2)c1`, for which the IC95 was 62 nM in data set [1], 62 nM in data set [2] and at most 31 nM in data set [4]. This compound gave an IC50 in [3] of 0.15 nM.
For the compound `O=C(N[C@H]1c2ccccc2OC[C@H]1O)[C@H](Cc1cccnc1)C[C@H](O)CN1CCN(Cc2ccn(-c3cccc(C(F)(F)F)c3)c2)C[C@H]1C(=O)NCC(F)(F)F`, the results for the IC95 in data set [1], in [2] and in data set [4] were 15 nM, 31 nM and at most 8 nM, respectively. Also, the IC50 in data set [3] was 0.05 nM.
On to `O=C(N[C@H]1c2ccccc2OC[C@H]1O)[C@H](Cc1cccnc1)C[C@H](O)CN1CCN(Cc2ccc(-c3ccccc3)o2)C[C@H]1C(=O)NCC(F)(F)F`, for which the IC95 (in data set [1]; in data set [2]; in the data set with MT4; in [4]) was at most 8 nM throughout. Moreover, the IC50 was determined as 0.07 nM in data set [12], 0.15 nM in [10] and 0.06 nM in data set [11]. For the same compound, the Cmax with Canis familiaris stood at 6.1 µM; in data set [13] it was 0.1 µM. In addition, the intrinsic clearance (CLint scaled) in data set [5] stood at 238 mL/min/kg.
`O=C(N[C@H]1c2ccccc2OC[C@H]1O)[C@H](Cc1cccnc1)C[C@H](O)CN1CCN(Cc2ccn(-c3cccc(F)c3)c2)C[C@H]1C(=O)NCC(F)(F)F`: the figures for the IC95 in data set [1], in [2] and in data set [4] were 15 nM, 31 nM and 15 nM, respectively. In data set [3], this compound registered a 50% inhibitory concentration (IC50) of 0.05 nM.
`Cc1ccccc1-n1ccc(CN2CCN(C[C@@H](O)C[C@@H](Cc3cccnc3)C(=O)N[C@H]3c4ccccc4OC[C@H]3O)[C@H](C(=O)NCC(F)(F)F)C2)c1`: the IC95 in data set [1] was at most 8 nM; in data set [2] it was 125 nM; in the data set on MT4, 31 nM; in [4], 31 nM. In data set [3], this compound came in with an IC50 of 0.16 nM.
